In ChEMBL document CHEMBL1140480, “Amino(methyl) pyrrolidines as novel scaffolds for factor Xa inhibitors” (Bioorg Med Chem Lett, 2007):
pIC50: −log10 of the molar value. Several values for one entry are separate records, joined by “and”; a condition that tells them apart may be missing. Equal values may be shown once.

What was measured:
Coagulation factor X = Coagulation factor X (Homo sapiens, UniProt P00742); assay: Inhibition of F10a
Plasma = assay: Anticoagulant activity in human plasma assessed as concentration required to double prothrombin time; format: functional
Cytochrome P450 2C19 = Cytochrome P450 2C19 (Homo sapiens, UniProt P33261); assay: Inhibition of CYP2C19; format: ADME
Sequence of Cytochrome P450 2C19 (P33261 whole entry): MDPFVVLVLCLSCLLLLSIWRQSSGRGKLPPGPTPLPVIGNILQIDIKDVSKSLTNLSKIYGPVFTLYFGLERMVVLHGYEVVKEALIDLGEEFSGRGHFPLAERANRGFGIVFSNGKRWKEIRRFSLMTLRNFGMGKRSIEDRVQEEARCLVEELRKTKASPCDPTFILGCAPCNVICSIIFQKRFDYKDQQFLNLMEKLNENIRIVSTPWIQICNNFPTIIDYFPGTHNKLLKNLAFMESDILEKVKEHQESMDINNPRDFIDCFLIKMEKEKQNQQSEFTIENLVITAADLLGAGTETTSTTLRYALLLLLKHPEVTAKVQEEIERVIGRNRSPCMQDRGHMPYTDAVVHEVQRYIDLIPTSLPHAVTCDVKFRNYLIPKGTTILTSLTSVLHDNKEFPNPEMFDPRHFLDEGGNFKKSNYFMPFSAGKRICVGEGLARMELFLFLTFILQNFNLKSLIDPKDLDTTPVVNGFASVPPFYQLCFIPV

[1] = target: Prothrombin (Homo sapiens) (UniProt P00734); assay: Inhibition of thrombin
Trypsin (Homo sapiens) = Trypsin (Homo sapiens) (UniProt P07477+P07478+P35030); assay: Inhibition of trypsin; format: protein assay
[2] = target: Coagulation factor IX (Homo sapiens) (UniProt P00740); assay: Inhibition of F9a
Sequence of Coagulation factor IX (Homo sapiens) (P00740 47-191 limits assumed): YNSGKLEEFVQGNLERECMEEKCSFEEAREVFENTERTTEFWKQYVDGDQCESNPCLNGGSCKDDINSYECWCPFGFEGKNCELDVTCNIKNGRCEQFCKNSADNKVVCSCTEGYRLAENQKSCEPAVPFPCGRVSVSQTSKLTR
Sequence of Coagulation factor IX (Homo sapiens) (P00740 227-461 limits assumed): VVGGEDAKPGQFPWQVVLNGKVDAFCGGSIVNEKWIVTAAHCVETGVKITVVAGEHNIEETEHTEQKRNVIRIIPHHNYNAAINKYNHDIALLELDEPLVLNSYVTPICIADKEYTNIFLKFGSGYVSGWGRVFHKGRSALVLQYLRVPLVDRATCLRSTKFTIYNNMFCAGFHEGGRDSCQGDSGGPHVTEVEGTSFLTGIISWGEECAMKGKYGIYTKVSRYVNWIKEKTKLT

[3] = target: T1, Coagulation factor VII (Homo sapiens) (UniProt P08709); assay: Inhibition of F7a
T1 sequence (whole entry): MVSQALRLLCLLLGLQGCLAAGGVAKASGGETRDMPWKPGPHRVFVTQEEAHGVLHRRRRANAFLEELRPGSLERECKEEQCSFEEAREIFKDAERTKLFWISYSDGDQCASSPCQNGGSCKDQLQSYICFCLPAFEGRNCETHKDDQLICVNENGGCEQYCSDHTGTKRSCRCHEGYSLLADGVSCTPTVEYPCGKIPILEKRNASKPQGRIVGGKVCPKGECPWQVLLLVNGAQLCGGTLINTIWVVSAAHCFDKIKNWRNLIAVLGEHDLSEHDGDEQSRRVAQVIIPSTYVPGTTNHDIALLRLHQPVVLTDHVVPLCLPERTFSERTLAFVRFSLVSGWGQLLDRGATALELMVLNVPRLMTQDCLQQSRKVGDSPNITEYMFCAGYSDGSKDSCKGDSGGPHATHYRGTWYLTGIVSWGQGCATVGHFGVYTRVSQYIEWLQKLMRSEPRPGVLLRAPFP

[4] = target: Plasma kallikrein (Homo sapiens) (UniProt P03952); assay: Inhibition of plasma kallikrein; format: cell-free
Sequence of Plasma kallikrein (Homo sapiens) (P03952 20-390 limits assumed): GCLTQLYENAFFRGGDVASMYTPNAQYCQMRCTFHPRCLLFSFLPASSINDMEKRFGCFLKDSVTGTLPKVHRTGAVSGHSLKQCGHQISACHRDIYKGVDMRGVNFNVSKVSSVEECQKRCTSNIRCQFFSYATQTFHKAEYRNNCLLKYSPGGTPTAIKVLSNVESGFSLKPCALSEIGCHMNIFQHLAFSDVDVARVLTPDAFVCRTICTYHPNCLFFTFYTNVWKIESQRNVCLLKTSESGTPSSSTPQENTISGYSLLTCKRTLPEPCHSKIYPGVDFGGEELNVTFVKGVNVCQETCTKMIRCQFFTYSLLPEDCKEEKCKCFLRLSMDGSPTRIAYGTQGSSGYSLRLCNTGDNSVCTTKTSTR
Sequence of Plasma kallikrein (Homo sapiens) (P03952 391-638 limits assumed): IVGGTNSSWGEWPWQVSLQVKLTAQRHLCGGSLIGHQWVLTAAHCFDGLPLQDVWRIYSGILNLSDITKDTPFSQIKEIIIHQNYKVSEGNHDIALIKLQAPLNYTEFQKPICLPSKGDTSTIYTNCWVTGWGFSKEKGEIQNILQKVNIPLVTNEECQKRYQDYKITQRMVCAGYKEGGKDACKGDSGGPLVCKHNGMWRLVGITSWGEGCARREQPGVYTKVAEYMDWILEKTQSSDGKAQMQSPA

[5] = Permeability from apical to basolateral side of the Caco-2 cell membrane at pH 6.5; format: ADME, cell-based; conditions: human, Caco-2, pH 6.5; read-out: permeability
Cytochrome P450 3A4 = Cytochrome P450 3A4 (Homo sapiens, UniProt P08684); assay: Inhibition of CYP3A4; format: ADME
Sequence of Cytochrome P450 3A4 (P08684 whole entry): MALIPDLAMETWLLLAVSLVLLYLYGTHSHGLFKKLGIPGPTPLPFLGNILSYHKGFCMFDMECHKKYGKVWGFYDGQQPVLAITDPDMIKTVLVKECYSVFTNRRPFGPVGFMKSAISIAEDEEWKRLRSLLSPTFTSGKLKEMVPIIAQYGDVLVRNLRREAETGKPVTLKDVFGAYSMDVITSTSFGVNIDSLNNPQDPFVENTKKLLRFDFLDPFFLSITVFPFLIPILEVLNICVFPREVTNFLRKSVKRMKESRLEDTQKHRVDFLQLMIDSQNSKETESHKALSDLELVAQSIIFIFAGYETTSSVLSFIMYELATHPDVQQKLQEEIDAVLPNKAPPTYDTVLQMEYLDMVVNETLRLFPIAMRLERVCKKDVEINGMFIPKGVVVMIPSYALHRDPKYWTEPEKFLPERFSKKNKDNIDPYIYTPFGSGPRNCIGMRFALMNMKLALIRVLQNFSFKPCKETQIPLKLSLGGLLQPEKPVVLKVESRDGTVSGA

Cytochrome P450 2D6 = Cytochrome P450 2D6 (Homo sapiens, UniProt P10635); assay: Inhibition of CYP2D6; format: ADME
Sequence of Cytochrome P450 2D6 (P10635 whole entry): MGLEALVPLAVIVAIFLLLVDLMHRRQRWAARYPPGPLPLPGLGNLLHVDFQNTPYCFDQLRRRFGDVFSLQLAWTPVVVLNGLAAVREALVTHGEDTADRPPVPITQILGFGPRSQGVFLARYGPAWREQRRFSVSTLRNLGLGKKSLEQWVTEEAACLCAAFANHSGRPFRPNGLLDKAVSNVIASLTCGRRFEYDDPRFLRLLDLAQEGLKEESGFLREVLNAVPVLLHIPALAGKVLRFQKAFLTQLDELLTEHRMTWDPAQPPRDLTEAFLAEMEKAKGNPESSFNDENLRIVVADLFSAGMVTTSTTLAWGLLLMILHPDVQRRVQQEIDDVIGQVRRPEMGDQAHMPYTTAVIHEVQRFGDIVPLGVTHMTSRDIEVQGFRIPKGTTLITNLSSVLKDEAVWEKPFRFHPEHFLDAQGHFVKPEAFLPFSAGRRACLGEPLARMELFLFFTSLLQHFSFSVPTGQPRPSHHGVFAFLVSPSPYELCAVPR

Cytochrome P450 2C9 = Cytochrome P450 2C9 (Homo sapiens, UniProt P11712); assay: Inhibition of CYP2C9; format: ADME
Sequence of Cytochrome P450 2C9 (P11712 whole entry): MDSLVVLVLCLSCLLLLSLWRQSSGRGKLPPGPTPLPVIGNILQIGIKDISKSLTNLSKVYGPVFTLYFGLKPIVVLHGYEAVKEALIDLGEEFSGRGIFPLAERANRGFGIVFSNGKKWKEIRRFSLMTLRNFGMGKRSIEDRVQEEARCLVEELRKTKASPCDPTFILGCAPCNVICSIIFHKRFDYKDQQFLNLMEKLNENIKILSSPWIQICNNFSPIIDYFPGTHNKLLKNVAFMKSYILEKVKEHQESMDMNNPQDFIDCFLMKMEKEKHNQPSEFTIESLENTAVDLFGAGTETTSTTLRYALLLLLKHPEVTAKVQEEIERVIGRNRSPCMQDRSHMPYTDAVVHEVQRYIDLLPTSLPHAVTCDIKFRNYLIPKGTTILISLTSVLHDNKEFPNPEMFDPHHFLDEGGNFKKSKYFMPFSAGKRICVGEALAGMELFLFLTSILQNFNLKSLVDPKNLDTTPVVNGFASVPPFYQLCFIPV

Cytochrome P450 1A2 = target: T2, Cytochrome P450 1A2 (Homo sapiens, UniProt P05177); assay: Inhibition of CYP1A2; format: ADME
T2 sequence (P05177 whole entry): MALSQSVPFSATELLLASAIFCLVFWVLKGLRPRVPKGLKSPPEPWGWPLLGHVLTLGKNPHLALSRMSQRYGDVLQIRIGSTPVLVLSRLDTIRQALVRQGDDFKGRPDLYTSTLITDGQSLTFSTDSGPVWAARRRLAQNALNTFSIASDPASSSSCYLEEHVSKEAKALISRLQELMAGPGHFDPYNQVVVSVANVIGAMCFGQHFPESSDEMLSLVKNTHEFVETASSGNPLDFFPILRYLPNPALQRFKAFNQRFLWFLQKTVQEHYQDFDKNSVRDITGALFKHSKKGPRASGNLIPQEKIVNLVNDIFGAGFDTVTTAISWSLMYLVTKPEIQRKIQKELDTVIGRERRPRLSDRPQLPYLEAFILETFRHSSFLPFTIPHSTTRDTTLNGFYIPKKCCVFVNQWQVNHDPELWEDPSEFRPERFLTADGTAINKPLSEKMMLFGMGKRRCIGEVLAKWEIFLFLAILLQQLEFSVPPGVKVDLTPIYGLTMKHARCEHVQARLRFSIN

Sequence of Coagulation factor X (P00742 41-179 limits assumed): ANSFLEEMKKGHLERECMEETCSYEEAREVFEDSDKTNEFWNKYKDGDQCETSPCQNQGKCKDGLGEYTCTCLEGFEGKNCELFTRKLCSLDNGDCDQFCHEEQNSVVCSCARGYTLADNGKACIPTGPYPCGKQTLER
Sequence of Coagulation factor X (P00742 235-488 limits assumed): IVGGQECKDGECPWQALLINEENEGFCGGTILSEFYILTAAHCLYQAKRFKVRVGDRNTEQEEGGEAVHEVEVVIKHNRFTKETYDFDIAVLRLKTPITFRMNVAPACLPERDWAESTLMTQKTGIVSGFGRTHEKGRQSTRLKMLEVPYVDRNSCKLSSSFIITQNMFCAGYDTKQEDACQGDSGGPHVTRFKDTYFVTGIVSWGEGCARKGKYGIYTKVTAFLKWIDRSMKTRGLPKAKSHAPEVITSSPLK

SMILES | pIC50 (Coagulation factor X) | Activity (Plasma) | also measured
O=C(C1CCN(c2ccncc2)CC1)N1CCC(CNS(=O)(=O)/C=C/c2cccc(Cl)c2)C1 (racemic) | 5.37 | – | –
O=C(C1CCN(c2ccncc2)CC1)N1CC[C@@H](CNS(=O)(=O)/C=C/c2ccc(Br)s2)C1 | 7.66 | 5 µM | –
O=C(C1CCN(c2ccncc2)CC1)N1CC[C@@H](CNS(=O)(=O)/C=C/c2ccc(Cl)s2)C1 | – | 1.7 µM | –
O=C(N1CCCC1)N1CC[C@H](CNS(=O)(=O)c2ccc(-c3ccc(Cl)s3)s2)C1 | 6.89 | 130 µM | –
Cc1nccc(N2CCC(C(=O)N3CC[C@@H](CNS(=O)(=O)/C=C/c4ccc(Cl)s4)C3)CC2)n1 | 6.64 | 28 µM | –
O=C(c1ccc(-n2ccnc2)cc1)N1CC[C@H](CNS(=O)(=O)/C=C/c2ccc(Cl)s2)C1 | 5.89 | – | –
O=C(N1CC[C@H](CNS(=O)(=O)c2ccc(-c3ccc(Cl)s3)s2)C1)N1CCC[C@H]1CN1CCCC1 | 7.40 | 13 µM | –
O=C(C1CCN(c2ccncc2)CC1)N1CC[C@@H](CNS(=O)(=O)c2ccc(-c3ccc(Cl)s3)s2)C1 | 7.74 | 6.8 µM | pIC50 (Cytochrome P450 2C19): 4.85; Activity [1]: > 30 µM; Activity (Trypsin (Homo sapiens)): > 30 µM; Activity [2]: > 30 µM; Activity [3]: > 30 µM; Activity [4]: > 30 µM; Papp A→B [5]: < 1.5 ×10⁻⁶ cm/s; pIC50 (Cytochrome P450 3A4): 5.63 and 6.00; pIC50 (Cytochrome P450 2D6): 5.10; pIC50 (Cytochrome P450 2C9): 5.83; pIC50 (Cytochrome P450 1A2): < 4.70
NS(=O)(=O)c1ccccc1-c1ccc(C(=O)N2CC[C@@H](CNS(=O)(=O)/C=C/c3ccc(Cl)s3)C2)cc1 | 5.72 | – | –
O=C(C(=O)N1CCC[C@H]1CN1CCCC1)N1CC[C@H](CNS(=O)(=O)/C=C/c2ccc(Cl)s2)C1 | 7.15 | 8 µM | –
O=C(C1CCN(c2ccncc2)CC1)N1CCC(CNS(=O)(=O)/C=C/c2ccc(Cl)cc2)C1 (racemic) | 6.31 | 32 µM | –
O=C(C1CCN(c2ccncc2)CC1)N1CC[C@H](CNS(=O)(=O)/C=C/c2ccc(Cl)s2)C1 | – | 13 µM | –
O=C(C1CCN(c2ccncc2)CC1)N1CCC(CNS(=O)(=O)c2cc3ccc(Cl)cc3s2)C1 (racemic) | 6.59 | 45 µM | –
O=C(C1CCN(c2ccncc2)CC1)N1CCC(CNS(=O)(=O)/C=C/c2ccc(Br)s2)C1 (racemic) | 7.07 | 8.7 µM | –
Cc1nccc(N2CCC(C(=O)N3CC[C@@H](CNS(=O)(=O)c4ccc(-c5ccc(Cl)s5)s4)C3)CC2)n1 | 7.21 | 50 µM | –
O=C(C1CCN(c2ccncc2)CC1)N1CCC(CNS(=O)(=O)c2ccc3ccccc3c2)C1 (racemic) | 5.96 | – | –
O=C(C(=O)N1CCC[C@H]1CN1CCCC1)N1CC[C@@H](CNS(=O)(=O)/C=C/c2ccc(Cl)s2)C1 | 6.36 | – | –
O=C(C1CCN(c2ccncc2)CC1)N1CCC(CNS(=O)(=O)c2ccc3cc(Cl)ccc3c2)C1 (racemic) | 6.61 | 40 µM | –
Cc1nccc(N2CCC(C(=O)N3CC[C@H](CNS(=O)(=O)/C=C/c4ccc(Cl)s4)C3)CC2)n1 | 6.14 | – | –
